Test results: patent US10732172B1, “Methods, systems, and compositions for determining blood clot formation, and uses thereof” (President and Fellows of Harvard College, priority 2015, dated 2020)

Test system: primary alveolar epithelial cells (AE) and endothelial cells with whole blood
Test: Lung-on-a-chip stimulated with TNF-α or LPS: vascular ICAM-1, P-E, clots, gap junctions
Format: cell-based, human
Description: Specifically, the analysis includes a method to quantitate platelet function in flow chambers and microfluidic devices that has been primarily limited to analyzing platelet adhesion on bare collagen surfaces. To analyze platelet-endothelial dynamics that will act as a robust readout of physiologically-relevant clotting, an automated imaging program creates an image time-series, K(x, y, t), containing a 10-frame panorama in space. Images are acquired at a frame rate of 2 panoramic images per minute, for a total time of 15 minutes. A non-dimensional stochastic index is derived to quantitate platelet endothelial dynamics (“P-E”), which is the interpercentile range of a coefficient of variance of the image time-series: P-E=range(CV(K(x,y,t) (1) A feature of this analytical readout is that instead of an “ensemble averaging,” the method incorporates the cell-surface interactions at the pixel level and quantitates statistical “dispersion” of interactions.
After plasma treatment of the microfluidic devices, the two chambers are pre-treated with 10% (3-aminopropyl)-trimethoxysilane (APTMES, e.g., from Sigma) in 100% anhydrous alcohol (e.g., from Sigma) for 10-20 minutes. The chambers are flushed sequentially with 70% ethanol in water and 100% ethanol, and then dried at 60-80° C. for two hours. Then, a mixture of rat tail collagen I (100 μg ml^−1 in PBS, from BD Biosciences) and fibronectin (e.g., 30 μg/ml in PBSm, from BD Biosciences) is introduced in both chambers of the microfluidic device. The microfluidic device is incubated at 37° C. for at least 2 hours before flushing with PBS or EGM-2 cell culture media.
Some of the microfluidic devices are used with collagen coating alone (without cells). In other devices, HUVECs (e.g. from Lonza) are cultured in Endothelial Growth Medium-2 (EGM-2, from Lonza) and used between certain passages. The cells (5-10×10^6 cells/ml) are introduced into the collagen-coated channels and incubated for 20 minutes at 37° C. to promote cell attachment before a second similar HUVEC suspension is, then, introduced. The microfluidic devices are incubated upside down for an additional 20 minutes to seed the cells on the ceiling and walls of the lower chamber.
The lower chamber is then flushed with EGM-2 and, then, a suspension of primary alveolar epithelial cells (e.g., from ScienCell Research Labs, Carlsbad, Calif.; 5-6×10^6 cells ml^−1) is introduced into the top chamber of the device. After a few hours, the top and bottom chambers are flushed with their respective media, and the microfluidic devices are incubated at 37° C. under 5% CO2 for 3 days (with media being replaced each day once). On day 4, the bottom vascular chamber is set on perfusion of EGM-2 media (e.g., 30 μL hr^−1; 0.5% fetal bovine serum) to provide shear to the HUVEC vessel chamber and a continuous supply of fresh media.
On day 6, the epithelial cell media in the top chamber is aspirated to create the air-liquid interface of the alveoli. Hereon, the cell culture continues for another 6-8 days, after which, in some cases, the top chamber is supplemented with 0, 5, or 100 ng ml^−1 TNF-α in PBS (e.g., from Sigma) overnight or LPS (e.g., 100 ng ml^−1 of E. Coli, from Sigma,) for 2 hours to cause cell activation. The LPS is sonicated in ultrasonic bath for about 20-30 minutes before introducing into the microfluidic device. After stimulation, the top chamber is clamped, the bottom chamber is rinsed with culture media, a reservoir cut from a 3 ml slip-tip syringe (e.g., from BD) is inserted on one end of the lower chamber, and a 1/16-inch male luer connector (e.g., from Qosina Corp) is inserted on the other end of the lower chamber.
When analyzing the formation of fibrin, blood samples re added with 15 μg ml^−1 of fluorescently labeled fibrinogen (e.g., Alexa 488 from Invitrogen). […]

With tumor necrosis factor-α [TNF-α] the “vascular ICAM-1 expression in lung-on-chip” value (TNF-α on alveolar compartment containing AE) was “increases in a dose-dependent manner”, the “platelet-endothelial dynamics in lung-on-chip” value (TNF-α stimulated versus untreated) was “follows a similar trend as ICAM-1” and the “clots (platelets and fibrin) in vascular compartment of lung-on-chip” value (TNF-α stimulated, end of assay) was “significant amount of clots are observed”.
